Laboratory results reported in article PMC9449155 (Brazilian Journal of Otorhinolaryngology, 2017).

Experiments:
[1] = laboratory experiments and clinical studies; cited from earlier work
Description: (§1) Fishman et al. reported that in a large review of patients with culture-positive, persistent tympanostomy tube otorrhea, S. aureus accounted for 52% of the organisms cultured, of which 57% were MRSA.[20] Presently, the most commonly used antibiotic against MRSA is vancomycin. […] Although there is no emergence of VRSA in CSOM, new anti-MRSA peptides need to be studied for the prevention of VRSA or VISA. Mandal et al. reported that approximately 15% of MRSA ...

MRSA = test: Inhibition zone assay; format: cell-based, Methicillin-resistant Staphylococcus aureus; conditions: 37 °C overnight
Procedure: MRSA was grown overnight for 18 h at 37 °C in 10 mL of LB broth and then 10 μL of this culture was inoculated into 10 mL of fresh LB and incubated for an additional 3 h at 37 °C to obtain mid-logarithmic phase organisms. The bacterial suspension (2 × 10^5 CFU/mL in LB) was mixed with 0.7% agarose and poured into a 10 cm Petri dish. […] The diameters of the bacterial clearance zones surrounding the circle paper were measured for the quantitation of inhibitory activities.

guinea pigs = conditions: guinea pig, in vivo; cited from earlier work
Description: as §1

[2] = paper disc on agarose plate, MRSA, zone size dose-dependent (Fig. 2)

CN[C@H](CC(C)C)C(=O)N[C@H]1C(=O)N[C@@H](CC(N)=O)C(=O)N[C@H]2C(=O)N[C@H]3C(=O)N[C@H](C(=O)N[C@H](C(=O)O)c4cc(O)cc(O)c4-c4cc3ccc4O)[C@H](O)c3ccc(c(Cl)c3)Oc3cc2cc(c3O[C@@H]2O[C@H](CO)[C@@H](O)[C@H](O)[C@H]2O[C@H]2C[C@](C)(N)[C@H](O)[C@H](C)O2)Oc2ccc(cc2Cl)[C@H]1O [vancomycin]
ototoxicity after vancomycin treatment [1]: did not demonstrate significant ototoxicity

KRIVQRIKKWLR-NH2 [KR-12-a2]
amount from which an inhibition zone against MRSA was produced (MRSA; 10 μL aliquots of serial dilution on ≈6 mm paper discs, MRSA 2 × 10^5 CFU/mL in LB with 0.7% agarose): 6.25 µg
amount giving the highest mean diameter of the inhibition zone (MRSA; [2]): 100 µg
amount giving the lowest mean diameter of the inhibition zone (MRSA; [2]): 6.25 µg

daptomycin
ototoxicity after topical application (guinea pigs): no ototoxicity
